# According to patent publication US9725469B2, “Amino-oxazine and amino-dihydrothiazine compounds as beta-secretase modulators and methods of use” (Amgen Inc., priority 2012, dated 2017):
# Tests used:
# [1] = people of the terminated Ph I dosing trial; cited from earlier work
# [2] = tested on: pigment epithelium of the rat's eye; conditions: higher compound dose given for three months; cited from earlier work
# [3] = tested on: Aβ40 in conditioned medium of cells stably expressing Amyloid Precursor Protein (APP); test: In vitro BACE cell-based assay (HEK cell assay, Aβ40 sandwich ELISA); conditions: Homo sapiens, HEK293; average IC50, Aβ40, 24 h incubation
# Experimental: In Vitro BACE Cell-Based Assay
# The cell-based assay measures inhibition or reduction of Aβ40 in conditioned medium of test compound treated cells expressing amyloid precursor protein.
# Cells stably expressing Amyloid Precursor Protein (APP) were plated at a density of 40K cells/well in 96 well plates (Costar). The cells were cultivated for 24 hours at 37° C. and 5% CO2 in DMEM supplemented with 10% FBS. The test compounds were then added to cells in 10-point dose response concentrations with the starting concentration being either 100 μM or 10 μM. The compounds were diluted from stock solutions in DMSO and the final DMSO concentration of the test compounds on cells was 0.1%. After 24 h of incubation with the test compounds the supernatant conditioned media was collected and the Aβ 40 levels were determined using a sandwich ELISA. The IC50 of the compound was calculated from the percent of control or percent inhibition of Aβ 40 as a function of the concentration of the test compound.
# The sandwich ELISA to detect Aβ 40 was performed in 96 well microtiter plates, which were pre-treated with goat anti-rabbit IgG (Pierce). The capture and detecting antibody pair that were used to detect Aβ 40 from cell supernatants were affinity purified pAb40 (Biosource) and biotinylated 6E10 (Signet Labs Inc.), respectively. The optimal concentration for the pAb40 antibody was 3 μg/ml in Superblock/TBS (Pierce) that was supplemented with 0.05% Tween 20 (Sigma). Optimal concentration for the detection antibody 6E10-biotinylated was 0.5 μg/ml in Superblock/TBS (Pierce) that had been supplemented with 2% normal goat serum and 2% normal mouse serum.
# Cellular supernatants were incubated with the capture antibody for 3 h at 4° C., followed by 3 wash steps in TBS-tween (0.05%). The detecting antibody incubation was for 2 h at 4° C., again followed by the wash steps as described previously. The final readout of the ELISA is Time-Resolved Fluorescence (counts per minute) using Delfia reagents Streptavidin-Europium and Enhancement solutions (Perkin Elmer) and the Victor 2 multilabel counter (Perkin Elmer).
# Abeta 40 = test: In vivo inhibition of beta-secretase: Abeta 40 reduction in rat CSF and brain; conditions: after 4 hrs; for % reduction of rat CSF Abeta 40 levels at 10 mpk: Abeta 40, rat CSF; for % reduction of rat brain levels at 10 mpk: Abeta 40, rat brain
# From the text: In Vivo Inhibition of Beta-Secretase
# Several animal models, including mouse, rat, dog, and monkey, may be used to screen for inhibition of beta-secretase activity in vivo following administration of a test compound sample. Animals used in this invention can be wild type, transgenic, or gene knockout animals. For example, the Tg2576 mouse model, prepared and conducted as described in Hsiao et al., 1996, Science 274, 99-102, and other non-transgenic or gene knockout animals are useful to analyze in vivo inhibition of Amyloid beta peptide (Abeta) production in the presence of inhibitory test compounds. Generally, 2 to 18 month old Tg2576 mice, gene knockout mice or non-transgenic animals are administered test compounds formulated in vehicles, such as cyclodextran, phosphate buffers, hydroxypropyl methylcellulose or other suitable vehicles. One to twenty-four hours following the administration of compound, animals are sacrificed, and brains as well as cerebrospinal fluid (CSF) and plasma are removed for analysis of A-beta levels and drug or test compound concentrations (Dovey et al., 2001, Journal of Neurochemistry, 76, 173-181) Beginning at time 0, animals are administered by oral gavage, or other means of delivery such as intravenous injection, an inhibitory test compound of up to 100 mg/kg in a standard, conventional formulation, such as 2% hydroxypropyl methylcellulose, 1% Tween80. A separate group of animals receive 2% hydroxypropyl methylcellulose, 1% Tween80 alone, containing no test compound, and serve as a vehicle-control group. At the end of the test period, animals are sacrificed and brain tissues, plasma or cerebrospinal fluid are collected. Brains are either homogenized in 10 volumes (w/v) of 0.2% diethylamine (DEA) in 50 mM NaCl (Best et al., 2005, Journal of Pharmacology and Experimental Therapeutics, 313, 902-908), or in 10 volumes of 0.5% TritonX-100 in Tris-buffered saline (pH at about 7.6). Homogenates are centrifuged at 355,000 g, 4° C. for 30 minutes. CSF or brain supernatants are then analyzed for the presence of A-beta peptide by specific sandwich ELISA assays based on ECL (Electrochemiluminescence) technology. For example, rat Abeta40 is measured using biotinylated-4G8 (Signet) as a capture antibody and Fab40 (an in-house antibody specific to the C-terminal of Abeta40) as a detection antibody. For example, 4 hours after administration of 30 mg/kg oral dose of the test compound in 2% hydroxypropyl methylcellulose, 1% Tween80 (pH2.2) to 200 g male Sprague Dawley rats, amyloid beta peptide levels are measured for reduction by X % and Y % in cerebrospinal fluid and brain, respectively, when compared to the levels measured in the vehicle-treated rats.
# Actual vehicles used: Oral: 2% HPMC, 1% Tween80, pH 2.2
# The compounds of the invention may be shown to reduce the formation and/or deposition of amyloid beta peptide in the cerebrospinal fluid (CSF) as well as in the brain of a mouse or rat at either 3 mpk, 10 mpk or 30 mpk (mpk=mg compound per kg weight of the animal) dosing concentrations after 4 hrs.
# [4] = molecular target: BACE 1 (beta secretase enzyme) (Homo sapiens, UniProt P56817); test: In vitro enzymatic BACE FRET assay; format: biochemical; conditions: average IC50, pH 4.2
# BACE 1 (beta secretase enzyme), sequence (P56817 46-501): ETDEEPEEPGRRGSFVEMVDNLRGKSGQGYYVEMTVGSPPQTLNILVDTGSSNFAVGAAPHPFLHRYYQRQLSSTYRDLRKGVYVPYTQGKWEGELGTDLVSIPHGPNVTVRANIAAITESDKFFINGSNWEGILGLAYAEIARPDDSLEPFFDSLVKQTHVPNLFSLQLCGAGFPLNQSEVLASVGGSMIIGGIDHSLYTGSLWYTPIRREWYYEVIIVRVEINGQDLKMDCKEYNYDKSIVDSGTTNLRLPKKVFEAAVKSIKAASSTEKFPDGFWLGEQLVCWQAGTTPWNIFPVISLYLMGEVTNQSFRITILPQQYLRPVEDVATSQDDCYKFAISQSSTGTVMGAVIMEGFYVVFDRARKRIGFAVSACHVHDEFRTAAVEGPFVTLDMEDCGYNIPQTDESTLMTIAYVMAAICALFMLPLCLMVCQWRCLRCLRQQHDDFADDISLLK
# Experimental: In Vitro Enzymatic BACE FRET (Fluorescence Resonance Energy Transfer) Assay
# The assay buffer used in this screen is 0.05 M acetate, pH 4.2, 10% DMSO final, 100 uM genapol (which is a nonionic detergent, below its Critical Micelle Concentration). The beta secretase enzyme (0.2 nM) is pre-incubated for one hour with inhibitors, typically in about 1 uL of DMSO according to a serial dilution, are added thereto. This assay is effectively started by the addition of FRET substrate (50 nM) and the combination is incubated for one hour. The FRET assay is terminated with by addition of Tris buffer, which raises the pH to neutrality, and the fluorescence is determined. The FRET substrate is a peptide with commercially available fluorophore and quencher, on opposite sides of the BACE cleavage site. Proteolytic cleavage of the FRET substrate releases quenching of fluorescence (excitation […] and […]).
# Cathepsin D = molecular target: T1, Cathepsin D (Homo sapiens, UniProt P07339); test: In vitro enzymatic Cat D (Cathepsin D) FRET assay; format: biochemical; conditions: average IC50, pH 3.5
# T1 construct: made in house; host or cells: CHO cells
# T1 sequence (P07339 65-412, species assumed): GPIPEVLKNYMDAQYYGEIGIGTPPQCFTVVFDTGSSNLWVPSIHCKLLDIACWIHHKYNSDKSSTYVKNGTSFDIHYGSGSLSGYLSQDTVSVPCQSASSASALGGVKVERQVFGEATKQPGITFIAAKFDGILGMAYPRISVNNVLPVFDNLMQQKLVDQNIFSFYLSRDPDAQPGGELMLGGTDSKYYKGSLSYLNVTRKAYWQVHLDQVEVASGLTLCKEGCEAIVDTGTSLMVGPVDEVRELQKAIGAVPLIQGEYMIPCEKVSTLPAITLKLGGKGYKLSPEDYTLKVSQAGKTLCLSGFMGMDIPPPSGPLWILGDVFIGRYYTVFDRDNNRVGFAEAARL
# Experimental: In Vitro Enzymatic Cat D (Cathepsin D) FRET (Fluorescence Resonance Energy Transfer) Assay
# Recombinant CathepsinD was expressed in CHO cells. The assay buffer for CathepsinD is 0.05 M citrate pH 3.5, 10% DMSO final, 5 mM CHAPS. The CathepsinD enzyme (9 nM) is pre-incubated for one hour with inhibitors, typically in about 1 uL of DMSO according to a serial dilution, is added thereto. The assays are effectively started by the addition of different FRET substrates (20 nM for CathepsinD) and the combination is incubated for one hour. The FRET assay is terminated with by addition of Tris buffer, which raises the pH to neutrality, and the fluorescence is determined. The FRET substrate is a peptide with commercially available fluorophore and quencher, on opposite sides of the BACE cleavage site. The CathepsinD substrate peptide sequence is based on sequence #1 of Table 1 from Gulnik et al. FEBS Letters v413 p 379-384 1997. Proteolytic cleavage of the FRET substrate releases quenching of fluorescence (CathepsinD excitation 500 nm and emission 580 nm). […]
# beta amyloid = conditions: patients in early stages of Alzheimer's Disease; cited from earlier work
Molecule,eye assessments in people [1],eye toxicity finding in rat [2],IC50 [3] [nM],% reduction of rat CSF Abeta 40 levels at 10 mpk (Abeta 40) [%],% reduction of rat brain levels at 10 mpk (Abeta 40) [%],IC50 [4] [nM],IC50 (Cathepsin D) [nM],slowing of the rate of cognitive decline and memory loss (beta amyloid)
C[C@@]1(c2cc(-c3cncnc3)c(F)cc2F)CCSC(N)=N1 [LY 2811376],did not show any abnormalities,damaged the pigment epithelium of the rat's eye,,,,,,
"C=C(C)c1cc2c(cn1)Oc1ccc(Nc3nccc4cc(OC)cnc34)cc1[C@@]21CCOC(N)=N1 [Example 37, (5S)-N~7~-(3-methoxy-1,7-naphthyridin-8-yl)-3-(1-methylethenyl)-5′,6′-dihydrospiro[chromeno[2,3-c]pyridine-5,4′-[l,3]oxazine]-2′,7-diamine]",,,3.8,38,32,17.8,546000,
"COc1cnc2c(Nc3ccc4c(c3)[C@@]3(CCSC(N)=N3)c3cc(C5=CCOCC5)nc(F)c3O4)nccc2c1 [Example 32, (5S)-3-(3,6-dihydro-2H-pyran-4-yl)-1-fluoro-N~7~-(3-methoxy-1,7-naphthyridin-8-yl)-5′,6′-dihydrospiro[chromeno[2,3-c]pyridine-5,4′-[1,3]thiazine]-2′,7-diamine]",,,3.3,71,47,4.4,373000,
Solanezumab: a monoclonal antibody which targets and binds to the central region of beta amyloid; Phase III clinical molecule,,,,,,,,approximately 30%
